# Assay results taken from US20020156236A1, “Binding sites for phosphotyrosine binding domains” (priority 1995, published 2002).
# Where a SMILES comes first, the peptide text is derived from it.
# Key:
# [1] = target: T1, SHC PTB domain / pp145 derived from activated B cells (Homo sapiens, UniProt P29353); experiment: Blocking of in vitro association of SHC PTB domain with pp145; format: binding
# T1 sequence (P29353 156-339 limits assumed): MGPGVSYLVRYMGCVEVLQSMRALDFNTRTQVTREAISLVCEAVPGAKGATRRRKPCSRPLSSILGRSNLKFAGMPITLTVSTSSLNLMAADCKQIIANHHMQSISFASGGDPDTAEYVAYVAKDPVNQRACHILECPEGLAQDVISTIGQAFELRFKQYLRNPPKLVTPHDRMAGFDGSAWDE
# Source text: (§1) The PTB domain was immunoprecipitated and the washed pellet assayed for the presence of bound peptide with streptavidin-coupled alkaline phosphatase. […] See, Kavanaugh and Williams, supra.
# [2] = target: T2, GST-PTB domain fusion protein (Homo sapiens, UniProt P29353); experiment: Direct binding of biotinylated peptides to PTB domain (streptavidin-coupled alkaline phosphatase detection); details: 500 nM biotinylated peptide, FIG. 3
# T2 construct: 100 ng of GST-PTB domain or GST-SH2 domain fusion protein were incubated; made in house; host or cells: Sf9 cells (recombinant baculovirus)
# T2 sequence (P29353 156-339 limits assumed): T1 sequence (P29353 156-339 limits assumed)
# Protocol: as §1
# Peptides were biotinylated during synthesis and HPLC purified. 100 ng of GST-PTB domain or GST-SH2 domain fusion protein were incubated in 1×hybridization buffer with 500 nM biotinylated phosphopeptide for 1 hour at 4° C., immunoprecipitated as described in Example 2, above, washed once, and the pellets incubated with 0.25 units of streptavidin-alkaline phosphatase for 5 minutes at 4° C. The pellets were washed twice more, incubated for 3 minutes at room temperature with 1 mg/ml p-nitrophenylphosphate in 100 mM glycine, pH 10.1, 1 mM ZnCl2 and 1 mM MgCl2. The absorbance was measured at 405 nm.
# [3] = target: T3, SH2 domain of SHC (GST-SH2 domain fusion protein) (Homo sapiens, UniProt P29353); experiment: Direct binding of biotinylated peptides to SH2 domain (streptavidin-coupled alkaline phosphatase detection); details: 500 nM biotinylated peptide, FIG. 3
# T3 construct: 100 ng of GST-PTB domain or GST-SH2 domain fusion protein were incubated
# T3 sequence (P29353 488-579 limits assumed): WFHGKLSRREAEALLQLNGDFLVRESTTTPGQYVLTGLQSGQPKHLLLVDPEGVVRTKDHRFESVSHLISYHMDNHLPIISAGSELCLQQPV
# [4] = target: T4, PTB domain/c-erbB2 binding (GST-PTB domain of SHC; c-erbB2 from SKBR3 lysate) (Homo sapiens, UniProt P29353); experiment: biochemical
# T4 construct: GST-PTB domain fusion proteins were expressed from recombinant baculovirus in sf9 cells; made in house; host or cells: Sf9 cells (recombinant baculovirus) for GST-PTB; c-erbB2 endogenous in SKBR3 cell lysate
# T4 sequence (P29353 156-341): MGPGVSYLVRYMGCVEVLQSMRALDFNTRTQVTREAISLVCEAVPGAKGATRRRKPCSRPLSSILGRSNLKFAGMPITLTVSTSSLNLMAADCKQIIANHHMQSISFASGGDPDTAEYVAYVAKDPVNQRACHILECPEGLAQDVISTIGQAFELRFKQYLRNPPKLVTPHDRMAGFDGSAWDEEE
structure (smiles),measurement,setting,value
"CC(C)C[C@H](NC(=O)[C@H](CC(N)=O)NC(=O)[C@H](CC(=O)O)NC(=O)[C@H](Cc1ccccc1)NC(=O)[C@H](C)NC(=O)[C@@H]1CCCN1C(=O)[C@H](CO)NC(=O)[C@H](Cc1ccccc1)NC(=O)[C@H](C)NC(=O)[C@@H]1CCCN1)C(=O)N[C@@H](Cc1ccc(OP(=O)(O)O)cc1)C(=O)N[C@@H](Cc1ccc(OP(=O)(O)O)cc1)C(=O)N[C@@H](Cc1c[nH]c2ccccc12)C(=O)N[C@@H](CC(=O)O)C(=O)N[C@@H](CCC(N)=O)C(=O)N[C@@H](CC(N)=O)C(=O)N[C@@H](CO)C(=O)N[C@@H](CO)C(=O)N[C@@H](CCC(=O)O)C(=O)N[C@@H](CCC(N)=O)C(=O)NCC(=O)O [PAFSPAFDNL (pY) (pY) WDQNSSEQG, PAFSPAFDNL(pY)(pY)WDQNSSEQG] (HELM PEPTIDE1{P.A.F.S.P.A.F.D.N.L.[O=C([C@H](Cc1ccc(OP(=O)(O)O)cc1)N[*:1])[*:2]].[O=C([C@H](Cc1ccc(OP(=O)(O)O)cc1)N[*:1])[*:2]].W.D.Q.N.S.S.E.Q.G}$$$$V2.0)",blocking of association of SHC PTB domain with pp145,[1],blocks association
same,"direct binding to PTB domain, in words",[2],able to bind directly
same,"binding to SH2 domain, in words",[3],inability of the SH2 domain of SHC to bind
same,IC50,[4]; Apparent Inhibition (IC50),50 nM
same,"block of PTB/c-erbB2 interaction at one peptide concentration, in words","[4]; FIG. 2C, 300 nM peptides (legend says 500 nM)",completely block
same,IC50,"[4]; approximate IC50, inhibition of PTB domain/c-erbB2 binding",~50 nM
same,ability to block the PTB domain/c-erbB2 interaction after dephosphorylation,[4]; peptide dephosphorylated with tyrosine-specific phosphatases,unable to block
same,peptide concentration at which substantial inhibition is shown,"[4]; varying peptide concentrations, FIG. 2B lower blot",50 nM
